According to US20070154449A1, “TIGHT JUNCTION MODULATING PEPTIDES FOR ENHANCED MUCOSAL DELIVERY OF THERAPEUTIC COMPOUNDS” (Nastech Pharmaceutical Company Inc., priority 2005, published 2007):

Columns and labels:
Type in all cases: cell-based
[1] = test system: human-derived tracheal/bronchial epithelial cells (EpiAirway™ Tissue model system); test: Transepithelial electrical resistance (TER), EpiAirway tissue model; settings: pH 7, 20 μl applied
Procedure: EpiAirway™ culture membranes were received the day before the experiments started. They are shipped in phenol red-free and hydrocortisone-free Dulbecco's Modified Eagle's Medium (DMEM). The cells are ciliated and psudostratefied, grown to confluency on Millipore Multiscreen Caco-2 96-well assay system comprised of a polycarbonate filter system. Upon receipt, the insert system will be stored unopened at 4° C. and/or cultured in 250 μl basal media per well (phenol red-free and hydrocortisone-free Dulbecco's Modified Eagle's Medium (DMEM)) at 37° C./5% CO2 for 24 hours before use.
TER measurements were taken using the REMS Autosampler (World Precision Instruments, Sarasota, Fla.) with the electrode leads. The electrodes and a tissue culture blank insert will be equilibrated for at least 20 minutes in MatTek Air-100™ medium with the power off prior to checking calibration. The background resistance of the insert system has been established by multiple measurements of a blank insert plate and the same value was used for each test on the platform. Time zero TER (TER0) was measured before incubation of the inserts with the test formulation. The top electrode will be as adjusted so that it is close to, but not making contact with, the top surface of the insert membrane. Background resistance of the blank insert should be about 5-20 ohms. For each TER determination, 100 μl of MatTek Air-100™ medium was added to the insert and 250 μl in the basal well followed by placement in the Endohm chamber. All TER values are reported as a function of the surface area of the tissue. Resistance was expressed as both Ohms*cm^2 and percent original TER value.
TER values were calculated as: [formula] [formula] Formula terms for TER calculation defined: […]
A decrease in TER value relative to the control value indicates a decrease in cell membrane resistance and an increase in mucosal epithelial cell permeability.
(§1) Of the total 300 μl volume for each test formulation, only a 20 μl sample was applied to the human-derived tracheal/bronchial epithelial cells (EpiAirway™ Tissue model system) in order to assess the effect each test formulation had on TER, LDH and sample permeation.

[2] = test system: human-derived tracheal/bronchial epithelial cells (EpiAirway™ Tissue model system); test: Cytotoxicity (LDH assay), EpiAirway tissue model; settings: 1 h incubation, % of 1% Triton X-100 control
Procedure: The amount of cell death was assayed by measuring the release of lactate dehydrogenase (LDH) from the cells into the apical medium using a CytoTox 96 Cytotoxicity Assay Kit (Promega Corp., Madison, Wis.). One percent Octylphenolpoly (ethyleneglycolether)×(Triton X-100™) diluted in phosphate buffered saline (PBS) causes 100% lysis in cultured cells and served herein as a positive control for the LDH assay. Following the one hour incubation period with a test formulation (refer to Table 4 in Example 2 for details of test formulations), the total liquid volume of each insert was brought to a final volume of 200 μl with culture medium. The apical medium was then mixed by pipetting four times with a multichannel pipette set to a 100 μl volume. After mixing, a 100 μl sample from the apical side of each insert was transferred to a new 96-well plate. The apical media samples were sealed with a plate sealer and stored at room temperature for same day analysis or stored overnight at 4° C. for analysis the next day. To measure LDH levels, 5 μl of the 100 μl apical media sample was diluted in 45 μl DPBS in a new 96-well plate. Fresh, cell-free culture medium will be used as a blank. Fifty microliters of substrate solution was added to each well and incubated for 30 minutes at room temperature away from direct light. Following the 30 minute incubation, 50 μl of stop solution was added to each well. Optical density (OD) was measured at 490 nm with a uQuant absorbance plate reader from Biotek Instruments. The measurement of LDH release into the apical media indicates relative cytotoxicity of the samples. Percent cytotoxicity for each test formulation was calculated by subtracting the measured absorbance of the PBS control (basal level of LDH release) from the measured absorbance of the individual test formulation and then dividing that value by the measured absorbance for the 1% Triton X-100™ positive control, multiplied by 100.
The formula used to calculate percent cytotoxicity is as follows: [formula] Osmolality
as §1

[3] = test system: human-derived tracheal/bronchial epithelial cells (EpiAirway™ Tissue model system); test: FITC-Dextran (FD3) permeation assay, EpiAirway tissue model; settings: for % FD3 Permeation: 1 h at 37° C.
Procedure: A FITC labeled dextran with a molecular weight 3000 (FD3) was used to assess the efficacy of individual TJMP on epithelial cell monolayer permeation. The tissue insert plates were transferred to a 96-well receiver plate containing 200 μl of DPBS++ as basal media. The apical surface of each tissue culture insert was incubated with a 20 μl sample of a single test formulation (refer to Table 4 in Example 2 for details of test formulations) for one hour at 37° C. in the dark on a shaker (˜100 rpm). Following the 1 hour incubation period, underlying basal media samples were taken from each tissue culture insert and temporarily stored in the dark at room temperature until FD3 levels were quantified by fluorescence spectroscopy. For FD3 measurements, a 150 μl of basal media sample was transferred to a black, clear bottom 96-well plate. Fluorescence emission at 528/20 following excitation at 485/20 were measured using a FLx800 fluorescence plate reader from Biotek Instruments.
Permeation was calculated as: [formula] [formula] Formula terms for permeation defined: […]
as §1

CNGRCGGKKKLKLLLKLL [PN679]
% T0 TER ([1]; 25 μM peptide): 70%
% T0 TER ([1]; 100 μM peptide): 7%
% T0 TER ([1]; 250 μM peptide): 2%
% T0 TER ([1]; 500 μM peptide): −2%
% T0 TER ([1]; 1000 μM peptide): −2%
LDH ([2]; 25 μM peptide): 1%
LDH ([2]; 100 μM peptide): 23%
LDH ([2]; 250 μM peptide): 38%
LDH ([2]; 500 μM peptide): 50%
LDH ([2]; 1000 μM peptide): 51%
% FD3 Permeation ([3]; 25 μM peptide): 0%
% FD3 Permeation ([3]; 100 μM peptide): 7%
% FD3 Permeation ([3]; 250 μM peptide): 8%
% FD3 Permeation ([3]; 500 μM peptide): 10%
% FD3 Permeation ([3]; 1000 μM peptide): 10%
optimal concentration ([3]; based on observed TER reduction, sample permeation and cytotoxicity (LDH release)): 100 µM
